Experimental data reported in ChEMBL document CHEMBL4342498, “Design and Discovery of an Orally Efficacious Spiroindolinone-Based Tankyrase Inhibitor for the Treatment of Colon Cancer” (J Med Chem, 2020).
Calls of active or inactive are those of the source. The calls are words filed in the database; no cut-off is given here.

How the values were obtained:
[1] = Stability in mouse liver microsomes assessed as parent compound remaining at 1 uM measured after 60 mins in presence of NADPH by LC-MS/MS analysis; format: ADME, Microsome; conditions: read-out: Stability
[2] = Tmax in Sprague-Dawley rat at 3 mg/kg, po; format: ADME, organism-based; conditions: in vivo
[3] = molecular target: Tankyrase 1/2 (Homo sapiens) (UniProt Q9H2K2+O95271); assay: Inhibition of TNKS/TNKS2-mediated WNT/beta-catenin signaling pathway in human COLO320DM cells assessed as upregulation of AXIN2 expression at 0.1 uM measured after 16 hrs by Western blot analysis relative to control; format: cell-based
Chain of Tankyrase 1/2 (Homo sapiens) (O95271 whole entry, looked up): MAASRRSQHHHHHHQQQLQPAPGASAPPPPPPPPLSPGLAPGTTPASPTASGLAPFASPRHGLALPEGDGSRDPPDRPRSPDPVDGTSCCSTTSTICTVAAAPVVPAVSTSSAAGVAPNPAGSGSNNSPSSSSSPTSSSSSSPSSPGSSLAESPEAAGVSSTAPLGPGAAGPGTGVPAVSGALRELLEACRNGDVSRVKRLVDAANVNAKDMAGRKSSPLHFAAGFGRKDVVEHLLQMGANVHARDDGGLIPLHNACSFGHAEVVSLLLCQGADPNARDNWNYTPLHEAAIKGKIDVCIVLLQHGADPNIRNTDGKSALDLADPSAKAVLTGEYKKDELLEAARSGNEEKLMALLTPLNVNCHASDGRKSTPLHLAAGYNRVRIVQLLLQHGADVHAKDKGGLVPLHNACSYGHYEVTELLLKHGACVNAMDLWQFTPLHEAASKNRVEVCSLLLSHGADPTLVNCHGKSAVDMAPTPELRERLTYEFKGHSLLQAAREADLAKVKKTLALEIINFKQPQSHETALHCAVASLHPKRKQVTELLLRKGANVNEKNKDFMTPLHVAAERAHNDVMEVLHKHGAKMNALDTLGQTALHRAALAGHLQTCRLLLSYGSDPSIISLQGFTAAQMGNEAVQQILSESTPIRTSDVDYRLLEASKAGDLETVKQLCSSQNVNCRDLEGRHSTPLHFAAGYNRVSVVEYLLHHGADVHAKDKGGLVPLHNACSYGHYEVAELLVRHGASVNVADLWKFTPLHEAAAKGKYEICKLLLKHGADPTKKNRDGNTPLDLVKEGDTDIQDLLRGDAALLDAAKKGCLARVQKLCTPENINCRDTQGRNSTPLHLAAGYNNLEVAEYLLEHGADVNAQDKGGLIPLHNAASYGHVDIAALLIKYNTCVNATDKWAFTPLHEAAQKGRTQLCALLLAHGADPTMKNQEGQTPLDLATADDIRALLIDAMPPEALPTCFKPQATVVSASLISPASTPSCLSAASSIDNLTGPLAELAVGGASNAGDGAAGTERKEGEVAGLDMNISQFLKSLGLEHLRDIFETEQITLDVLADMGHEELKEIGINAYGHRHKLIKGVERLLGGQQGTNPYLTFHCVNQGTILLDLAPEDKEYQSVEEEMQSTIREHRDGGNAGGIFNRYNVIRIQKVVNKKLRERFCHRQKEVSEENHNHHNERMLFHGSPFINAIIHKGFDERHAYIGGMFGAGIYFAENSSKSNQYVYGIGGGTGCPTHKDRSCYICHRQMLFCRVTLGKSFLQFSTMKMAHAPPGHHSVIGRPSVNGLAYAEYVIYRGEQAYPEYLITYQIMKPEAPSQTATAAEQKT
Chain of Tankyrase 1/2 (Homo sapiens) (Q9H2K2 whole entry, looked up): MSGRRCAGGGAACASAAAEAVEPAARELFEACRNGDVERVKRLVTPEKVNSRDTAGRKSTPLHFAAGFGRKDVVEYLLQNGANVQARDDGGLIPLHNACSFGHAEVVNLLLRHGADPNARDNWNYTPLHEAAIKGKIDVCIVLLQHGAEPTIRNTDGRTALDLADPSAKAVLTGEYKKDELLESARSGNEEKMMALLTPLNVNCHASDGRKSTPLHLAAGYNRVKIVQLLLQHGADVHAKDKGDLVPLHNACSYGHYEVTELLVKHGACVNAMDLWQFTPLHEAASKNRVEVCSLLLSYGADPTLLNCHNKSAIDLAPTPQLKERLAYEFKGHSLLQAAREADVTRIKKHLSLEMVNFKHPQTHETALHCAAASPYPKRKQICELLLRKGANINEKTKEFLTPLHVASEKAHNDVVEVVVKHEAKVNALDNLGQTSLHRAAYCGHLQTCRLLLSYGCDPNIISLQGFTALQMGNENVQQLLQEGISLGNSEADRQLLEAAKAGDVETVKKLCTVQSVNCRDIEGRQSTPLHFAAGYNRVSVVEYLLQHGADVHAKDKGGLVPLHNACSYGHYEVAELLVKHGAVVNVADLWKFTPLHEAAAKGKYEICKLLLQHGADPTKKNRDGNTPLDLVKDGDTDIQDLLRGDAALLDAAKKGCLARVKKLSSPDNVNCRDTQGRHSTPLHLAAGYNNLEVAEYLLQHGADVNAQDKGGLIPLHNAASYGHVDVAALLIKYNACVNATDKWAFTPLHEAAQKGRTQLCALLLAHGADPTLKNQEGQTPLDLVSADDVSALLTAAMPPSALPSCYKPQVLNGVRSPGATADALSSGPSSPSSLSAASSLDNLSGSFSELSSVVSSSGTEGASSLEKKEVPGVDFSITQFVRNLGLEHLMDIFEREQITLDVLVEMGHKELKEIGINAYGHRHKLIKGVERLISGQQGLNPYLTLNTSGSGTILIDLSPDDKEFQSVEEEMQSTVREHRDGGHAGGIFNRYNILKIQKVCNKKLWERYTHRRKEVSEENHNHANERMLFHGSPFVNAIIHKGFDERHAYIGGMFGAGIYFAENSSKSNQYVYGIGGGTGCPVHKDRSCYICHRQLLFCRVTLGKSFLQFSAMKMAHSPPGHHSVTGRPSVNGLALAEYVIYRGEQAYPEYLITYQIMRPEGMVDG

Mus musculus [4] = assay: (§1) In vivo inhibition of TNSK/TNSK2-medited WNT/beta-catenin signaling in human COLO320DM cells xenografted Prkdc-NOD-SCID CB17 mouse assessed as reduction in active-beta catenin expression in tumor nuclear extract at 10 to 20 mg/kg, ip administered twice daily for 5 days followed by 2 days interval for 2 cycles measured 4 hrs post-last dose by Western blot analysis; format: functional, organism-based
[5] = AUC (infinity) in ICR mouse at 20 mg/kg, po; format: ADME, organism-based; design: dose 20 mg/kg, time infinity, route oral; conditions: in vivo
Homo sapiens [6] = species: Homo sapiens
Mus musculus [7] = assay: as §1, with “po” for “ip”; format: functional, organism-based
[8] = Half life in Sprague-Dawley rat at 3 mg/kg, iv; format: ADME, organism-based; conditions: in vivo
COLO 320DM = assay: Antitumor activity against human COLO320DM cells xenografted in Prkdc-NOD-SCID CB17 mouse assessed as tumor growth inhibition at 10 mg/kg, ip administered twice daily for 5 days followed by 2 days interval for 2 cycles relative to control; format: functional; conditions: read-out: TGI
Cytochrome P450 2C19 = Cytochrome P450 2C19 (Homo sapiens, UniProt P33261); assay: Inhibition of CYP2C19 in human liver microsomes using (S)-mephenytoin as substrate preincubated for 5 mins followed by NADPH addition and measured for 10 to 30 mins by LC-MS/MS analysis; format: ADME
Chain of Cytochrome P450 2C19 (P33261 whole entry, the tested form may be a part): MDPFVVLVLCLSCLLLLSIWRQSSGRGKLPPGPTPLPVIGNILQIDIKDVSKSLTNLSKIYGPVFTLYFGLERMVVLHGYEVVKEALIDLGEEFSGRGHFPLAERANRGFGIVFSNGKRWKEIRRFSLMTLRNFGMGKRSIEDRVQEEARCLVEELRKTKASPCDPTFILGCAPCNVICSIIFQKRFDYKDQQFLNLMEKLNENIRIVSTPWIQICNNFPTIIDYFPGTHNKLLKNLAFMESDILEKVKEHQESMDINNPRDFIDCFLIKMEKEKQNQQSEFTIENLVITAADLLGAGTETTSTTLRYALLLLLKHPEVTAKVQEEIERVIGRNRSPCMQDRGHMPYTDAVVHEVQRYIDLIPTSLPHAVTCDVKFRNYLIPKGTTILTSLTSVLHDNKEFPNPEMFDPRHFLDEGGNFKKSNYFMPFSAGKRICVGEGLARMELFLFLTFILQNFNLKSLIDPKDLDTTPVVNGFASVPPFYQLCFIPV

[9] = molecular target: Poly [ADP-ribose] polymerase 2 (Homo sapiens, UniProt Q9UGN5); assay: Inhibition of human recombinant N-terminal GST-tagged PARP2 (2 to 583 residues) expressed in baculovirus infected Sf9 cells assessed as reduction in auto-PARylation using histone as substrate measured after 45 mins in presence of biotinylated-NAD+ by ELISA
Chain of Poly [ADP-ribose] polymerase 2 (Q9UGN5 whole entry, the tested form may be a part): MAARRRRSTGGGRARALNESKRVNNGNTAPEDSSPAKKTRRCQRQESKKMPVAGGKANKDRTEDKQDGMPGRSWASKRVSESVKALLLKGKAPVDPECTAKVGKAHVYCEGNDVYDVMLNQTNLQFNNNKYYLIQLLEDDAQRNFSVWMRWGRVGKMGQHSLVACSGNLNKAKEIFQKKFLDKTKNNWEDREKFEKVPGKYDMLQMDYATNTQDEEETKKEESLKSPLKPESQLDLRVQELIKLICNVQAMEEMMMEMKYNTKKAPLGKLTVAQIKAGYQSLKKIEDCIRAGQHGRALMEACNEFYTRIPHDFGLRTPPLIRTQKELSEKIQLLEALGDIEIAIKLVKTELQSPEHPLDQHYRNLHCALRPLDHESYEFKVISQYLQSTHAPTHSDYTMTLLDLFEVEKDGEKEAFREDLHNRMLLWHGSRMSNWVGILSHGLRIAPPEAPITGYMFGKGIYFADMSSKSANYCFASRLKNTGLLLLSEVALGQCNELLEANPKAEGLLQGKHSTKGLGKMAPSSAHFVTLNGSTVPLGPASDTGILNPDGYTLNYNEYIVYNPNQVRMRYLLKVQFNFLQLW

[10] = Tmax in ICR mouse at 20 mg/kg, po; format: ADME, organism-based; conditions: in vivo
[11] = molecular target: T1, Protein mono-ADP-ribosyltransferase PARP10 (Homo sapiens, UniProt Q53GL7); assay: Inhibition of human recombinant N-terminal TEV-cleavgae site-fused-FLAG/Polyhis-tagged PARP10 […] expressed in Escherichia coli assessed as reduction in auto-PARylation using histone as substrate measured after 45 mins in presence of biotinylated-NAD+ by ELISA
T1 sequence (Q53GL7 whole entry): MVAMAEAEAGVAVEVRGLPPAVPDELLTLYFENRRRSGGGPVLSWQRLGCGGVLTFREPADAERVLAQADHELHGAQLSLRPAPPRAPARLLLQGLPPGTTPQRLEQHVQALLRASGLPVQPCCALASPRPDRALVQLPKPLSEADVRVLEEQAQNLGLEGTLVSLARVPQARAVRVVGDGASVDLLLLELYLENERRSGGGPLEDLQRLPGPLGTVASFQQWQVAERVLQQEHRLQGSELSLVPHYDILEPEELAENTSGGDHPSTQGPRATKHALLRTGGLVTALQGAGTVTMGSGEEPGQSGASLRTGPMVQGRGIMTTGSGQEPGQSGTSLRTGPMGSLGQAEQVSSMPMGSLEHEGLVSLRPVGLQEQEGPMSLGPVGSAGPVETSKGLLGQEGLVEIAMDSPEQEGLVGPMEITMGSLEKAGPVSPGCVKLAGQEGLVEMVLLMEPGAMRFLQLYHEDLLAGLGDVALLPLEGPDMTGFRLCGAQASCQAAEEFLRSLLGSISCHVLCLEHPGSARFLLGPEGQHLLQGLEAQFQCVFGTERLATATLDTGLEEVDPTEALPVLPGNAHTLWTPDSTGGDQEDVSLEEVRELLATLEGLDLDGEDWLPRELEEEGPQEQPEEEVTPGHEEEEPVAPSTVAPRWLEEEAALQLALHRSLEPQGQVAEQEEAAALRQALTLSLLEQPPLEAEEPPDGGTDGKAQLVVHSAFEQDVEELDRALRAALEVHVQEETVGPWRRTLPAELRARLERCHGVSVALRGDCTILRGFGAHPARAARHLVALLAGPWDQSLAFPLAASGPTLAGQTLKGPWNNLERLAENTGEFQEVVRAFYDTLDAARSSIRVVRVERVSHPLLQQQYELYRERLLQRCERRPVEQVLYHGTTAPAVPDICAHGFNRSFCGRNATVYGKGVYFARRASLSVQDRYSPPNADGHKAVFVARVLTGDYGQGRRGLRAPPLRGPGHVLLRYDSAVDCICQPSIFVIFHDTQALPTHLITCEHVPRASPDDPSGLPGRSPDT

Homo sapiens [12] = species: Homo sapiens; remark: listed apart in the source
RKO = assay: Antiproliferative activity against human RKO cells assessed inhibition of cell growth measured after 5 days by MTT assay; format: functional; conditions: 120 h
[13] = Toxicity in human COLO320DM cells xenografted Prkdc-NOD-SCID CB17 mouse assessed as change in body weight at 10 to 20 mg/kg, ip administered twice daily for 5 days followed by 2 days interval for 2 cycles measured during compound dosing; format: organism-based; conditions: in vivo
Cytochrome P450 3A4 = Cytochrome P450 3A4 (Homo sapiens, UniProt P08684); assay: Inhibition of CYP3A4 in human liver microsomes using midazolam as substrate preincubated for 5 mins followed by NADPH addition and measured for 10 to 30 mins by LC-MS/MS analysis; format: ADME
Chain of Cytochrome P450 3A4 (P08684 whole entry): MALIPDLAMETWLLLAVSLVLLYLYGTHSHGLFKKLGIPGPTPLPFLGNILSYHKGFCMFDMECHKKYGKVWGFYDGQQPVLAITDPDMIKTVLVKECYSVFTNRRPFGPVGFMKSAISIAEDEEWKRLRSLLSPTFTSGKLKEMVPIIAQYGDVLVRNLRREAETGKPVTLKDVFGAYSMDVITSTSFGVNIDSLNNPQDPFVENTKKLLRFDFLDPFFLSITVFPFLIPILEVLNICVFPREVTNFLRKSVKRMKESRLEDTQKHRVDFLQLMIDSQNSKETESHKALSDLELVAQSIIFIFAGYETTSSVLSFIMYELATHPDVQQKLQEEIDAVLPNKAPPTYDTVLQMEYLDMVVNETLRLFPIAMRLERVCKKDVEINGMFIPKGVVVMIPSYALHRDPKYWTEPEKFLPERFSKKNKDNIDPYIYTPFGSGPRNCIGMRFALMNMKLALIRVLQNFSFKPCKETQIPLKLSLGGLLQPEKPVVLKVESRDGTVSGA

Homo sapiens [14] = species: Homo sapiens; remark: listed apart in the source
Cytochrome P450 2C8 = molecular target: T2, Cytochrome P450 2C8 (Homo sapiens, UniProt P10632); assay: Inhibition of CYP2C8 in human liver microsomes using amodiaquine as substrate preincubated for 5 mins followed by NADPH addition and measured for 10 to 30 mins by LC-MS/MS analysis; format: ADME
T2 sequence (P10632 whole entry): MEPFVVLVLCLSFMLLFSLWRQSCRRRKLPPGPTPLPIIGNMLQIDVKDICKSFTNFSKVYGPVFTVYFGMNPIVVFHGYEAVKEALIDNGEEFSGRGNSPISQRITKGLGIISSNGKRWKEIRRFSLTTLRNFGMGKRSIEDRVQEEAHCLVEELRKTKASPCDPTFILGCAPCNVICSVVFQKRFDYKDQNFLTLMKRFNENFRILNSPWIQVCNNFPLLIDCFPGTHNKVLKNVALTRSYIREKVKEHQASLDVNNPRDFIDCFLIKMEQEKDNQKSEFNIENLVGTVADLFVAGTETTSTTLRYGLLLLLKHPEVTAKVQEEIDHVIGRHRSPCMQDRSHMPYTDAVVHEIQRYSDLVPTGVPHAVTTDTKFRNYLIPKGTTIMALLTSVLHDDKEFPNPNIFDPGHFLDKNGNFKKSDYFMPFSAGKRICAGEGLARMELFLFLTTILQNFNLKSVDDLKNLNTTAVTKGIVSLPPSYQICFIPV

[15] = Dose normalized initial plasma concentration in Sprague-Dawley rat at 1 mg/kg, iv; format: ADME, organism-based; conditions: in vivo

remaining at 1 h, 1 µM [1] | Tmax [2] | fold change (FC) [3] | AUC(0-inf) [5] | Ratio IC50 (Homo sapiens [6]) | half-life [8] | IC50 (Cytochrome P450 2C19) | IC50 [9] | Tmax [10] | IC50 [11] | Ratio IC50 (Homo sapiens [12]) | IC50 (Cytochrome P450 3A4) | Ratio IC50 (Homo sapiens [14]) | IC50 (Cytochrome P450 2C8) | C0/dose [15] | SMILES | inhibition (Mus musculus [4]) | inhibition (Mus musculus [7]) | inhibition in vivo at 10 mg/kg (COLO 320DM) | GI50 (RKO) | Activity [13]
30.5 to 54.5% | – | – | – | – | – | – | – | – | – | – | – | – | – | – | CN1CCN(c2cc(F)c3c(c2)N(C)C(=O)C32CCN(c3nc4c(c(=O)[nH]3)CCCN4C)CC2)CC1 | – | – | – | – | –
28.7 to 55.9% | 0.33 h | 5.23 | 326 µM·h | 34 | 3.61 h | > 10 µM | 1.24 µM | 1 h | 8.05 µM | 223 | > 10 µM | 504 | > 10 µM | 15.26 µM | C[C@@H]1CN(c2cc(F)c3c(c2)N(C)C(=O)C32CCN(c3nc4c(c(=O)[nH]3)CCCN4C)CC2)C[C@H](C)O1 | inactive | Active | 68.8% | > 10 µM | Non-Toxic
